This note sets out measurements from patent US12065435B2, “Compounds for the treatment of glycogen storage disorders” (HADASIT MEDICAL RESEARCH SERVICES AND DEVELOPMENT LTD., priority 2017, dated 2024).

This assay concerns polyglucosan body (PB) in APBD patient-derived fibroblasts. Briefly: High content (image-based) PAS screening assay for polyglucosan bodies. The assay is classed as cell-based, human. The note with it: 0, 1, 5, 10 and 50 μM. As to the method: All the steps of the assay were performed automatically using a Freedom Evo 150 liquid handling robot (Tecan). APBD patient-derived fibroblasts were seeded at a density of 800 cells/well in DMEM (Gibco) supplemented with 1 mM sodium pyruvate (Gibco), 1% antibiotics (Biological Industries, Israel) and 5% fetal bovine serum (Hyclone) into 384 well microclear plates (Greiner). The plates were transferred by the robotic arm (RoMa) into an automated incubator (Liconic), integrated with the robotic system, where they were incubated at 37° C. with 5% CO2. Following 24 h incubation, the medium was replaced by the robot using medium supplemented with 10 μM of each screened compound (0.1% DMSO final concentration, all prepared by the robot). The screened compounds were part of the Diverset CL collection purchased from ChemBridge (10,084 out of 50,000 molecules).
Next, these cells were cultured for another 24 h in the automated incubator, and, using the robot, washed them with PBS (Biological Industries, Israel), the cells were fixed with 4% paraformaldehyde (PFA), washed again with PBS, neutralized the previously added PFA by ammonium chloride (Sigma Aldrich), washed with PBS, permeabilized with 0.1% Triton X-100 (Sigma Aldrich), and washed again with PBS.
Following this, a robot was used to treat the fixed cells with 0.5 g/dl diastase (or amylase, Sigma Aldrich) for 5 minutes at 37° C. in the automated incubator, wash with PBS, stained with PAS (Merck), Hoechst 33342 (Sigma Aldrich) and Cell Mask Deep Red (Molecular Probes) and wash with PBS. Images of stained cells were then acquired by the IN Cell Analyzer 2000 (GE Healthcare) and analyzed using the IN Cell Investigator (GE Healthcare) applying an algorithm that quantified the PAS signal within each Cell Mask stained cell.
Images were segmented based on the Cell Mask signal which was linked with the segmentation of the nuclei, employing an empirically established sensitivity and kernel size for allowing the best segmentation. Once these nucleus-cytoplasm complex objects were selected, the software calculated the number of these objects (cell number) as well as the intensity of the PAS signal within each of them. All the assay parameters (including the acquisition exposure times, objective, and the analysis parameters) were kept constant throughout the whole screening campaign for allowing comparison of signals obtained from different batches of assay within the campaign.
The assay was performed as mentioned above, but with compound concentrations of 1, 5, 10, and 50 μM, instead of a constant concentration of 10 μM.
The discarded data was presumably associated with cells affected by toxic compounds. In the remaining data, the measured population mean PB intensity was normalized. Based on a series of images used for training, compounds were considered as positive only where following treatment the normalized PB mean intensity was at least under −1.2 z-score of the scale. Following this approach, 85 potential hits out of the 10,084 screened compounds were selected (0.84%).
Regarding `O=C(CN1CCOC1=O)N1CC[C@@H](c2ccc3ccccc3c2)[C@H](O)C1` (relative stereo) [UDP #5, 3-{2-[(3S*,4S*)-3-hydroxy-4-(2-naphthyl)piperidin-1-yl]-2-oxoethyl}-1,3-oxazolidin-2-one], the “dose response of diastase resistant cell associated mean PAS intensity normalized by z-score” value is “concentration dependent”.

For the compound `Cn1nc(-c2cccs2)cc1C(=O)N1[C@@H]2CC[C@H]1CNC(=O)C2` (relative stereo) [UDP #9, (1S*,6R*)-9-{[1-methyl-3-(2-thienyl)-1H-pyrazol-5-yl]carbonyl}-3,9-diazabicyclo[4.2.1]nonan-4-one], the “dose response of diastase resistant cell associated mean PAS intensity normalized by z-score” value is recorded as “lowered mean normalized PAS intensity in a non-dose responding manner”.

Regarding `CCO[C@H]1COC[C@@H]1NC(=O)Cc1c(C)nc(N)nc1C` (relative stereo) [UDP #13, 2-(2-amino-4,6-dimethylpyrimidin-5-yl)-N-[(3S*,4R*)-4-ethoxytetrahydrofuran-3-yl]acetamide], the “dose response of diastase resistant cell associated mean PAS intensity normalized by z-score” value is on record as “concentration dependent”.

Turning to `Oc1ccc(-c2cc(NCc3cccnc3)nc3[nH]ccc23)c(F)c1` [UDP #1, 3-fluoro-4-{6-[(pyridin-3-ylmethyl)amino]-1H-pyrrolo[2,3-b]pyridin-4-yl}phenol], the “dose response of diastase resistant cell associated mean PAS intensity normalized by z-score” value is recorded as “lowered mean normalized PAS intensity in a non-dose responding manner”.

For `COc1cc(F)c(CN2CCN(c3cncc(C(N)=O)n3)CC2)c(F)c1` [UDP #2, 6-[4-(2,6-difluoro-4-methoxybenzyl)piperazin-1-yl]pyrazine-2-carboxamide], the “dose response of diastase resistant cell associated mean PAS intensity normalized by z-score” value is reported as “concentration dependent”.

On to `CC(C)CCN1CCNC(=O)C1CC(=O)N1CCc2[nH]nc(C3CC3)c2C1` (centres unmarked) [UDP #3, 3-[2-(3-cyclopropyl-1,4,6,7-tetrahydro-5H-pyrazolo[4,3-c]pyridin-5-yl)-2-oxoethyl]-4-(3-methylbutyl)-2-piperazinone], for which the “dose response of diastase resistant cell associated mean PAS intensity normalized by z-score” value is on record as “lowered mean normalized PAS intensity in a non-dose responding manner”.

Regarding `CCc1ccc(CN(C)C(=O)c2ccc3c(c2)no[n+]3[O-])nc1` [UDP #11, N-[(5-ethylpyridin-2-yl)methyl]-N-methyl-2,1,3-benzoxadiazole-5-carboxamide 1-oxide], the “dose response of diastase resistant cell associated mean PAS intensity normalized by z-score” value was “concentration dependent”.

Take `CC(C)(C)c1ccc(O)c(-n2cnnc2)c1` [UDP #14, 4-tert-butyl-2-(4H-1,2,4-triazol-4-yl)phenol]: the “dose response of diastase resistant cell associated mean PAS intensity normalized by z-score” value is listed as “concentration dependent”.

With `C1CCc2c(n[nH]c2CCNC2CCC3(CCNCC3)CC2)C1` [UDP #15], the “dose response of diastase resistant cell associated mean PAS intensity normalized by z-score” value is recorded as “concentration dependent”.

With `COc1ccc(-c2ncc(C)c(N)n2)c(C)c1` [UDP #16, 2-(4-methoxy-2-methylphenyl)-5-methylpyrimidin-4-amine], the “dose response of diastase resistant cell associated mean PAS intensity normalized by z-score” value is listed as “lowered mean normalized PAS intensity in a non-dose responding manner”.

Consider `Cc1c(NC(=O)c2ccco2)cccc1C(=O)N1CCC2(CCCNC2)C1` (centres unmarked) [UDP #17, N-[3-(2,7-diazaspiro[4.5]dec-2-ylcarbonyl)-2-methylphenyl]-2-furamide], for which the “dose response of diastase resistant cell associated mean PAS intensity normalized by z-score” value is reported as “concentration dependent”.
